Results published in ChEMBL document CHEMBL5214954, “Identification of PI3K/HDAC Dual-targeted inhibitors with subtype selectivity as potential therapeutic agents against solid Tumors: Building HDAC6 potency in a Quinazolinone-based PI3Kδ-selective template” (Bioorg Med Chem, 2022).

What was measured:
[1] = molecular target: T1, Histone deacetylase 11 (Homo sapiens, UniProt Q96DB2)
T1 sequence (Q96DB2 whole entry): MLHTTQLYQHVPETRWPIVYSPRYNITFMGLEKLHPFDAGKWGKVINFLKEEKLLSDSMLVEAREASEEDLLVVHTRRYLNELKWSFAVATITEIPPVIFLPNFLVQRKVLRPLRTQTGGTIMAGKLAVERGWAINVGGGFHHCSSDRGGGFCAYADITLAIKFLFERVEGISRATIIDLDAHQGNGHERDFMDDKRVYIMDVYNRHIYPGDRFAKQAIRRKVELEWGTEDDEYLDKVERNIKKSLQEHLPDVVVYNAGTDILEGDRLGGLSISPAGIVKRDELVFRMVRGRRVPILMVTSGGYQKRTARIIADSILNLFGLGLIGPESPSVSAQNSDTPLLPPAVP
Description: Inhibition of HDAC11 (unknown origin) measured by fluorescence based assay

[2] = molecular target: Phosphatidylinositol 4,5-bisphosphate 3-kinase catalytic subunit alpha isoform (Homo sapiens, UniProt P42336); assay: Inhibition of PI3Kalpha (unknown origin) measured by ADP-Glo assay
[3] = organism: Homo sapiens; assay: Selectivity ratio, ratio IC50 for inhibition of PI3Kgamma (unknown origin) to IC50 for inhibition of PI3Kdelta (unknown origin)
[4] = molecular target: Phosphatidylinositol 4,5-bisphosphate 3-kinase catalytic subunit gamma isoform (Homo sapiens, UniProt P48736); assay: Inhibition of PI3Kgamma (unknown origin) measured by ADP-Glo assay
[5] = molecular target: Histone deacetylase 1 (Homo sapiens, UniProt Q13547)
Description: Inhibition of HDAC1 (unknown origin) measured by fluorescence based assay

[6] = system: T47D; assay: Downregulation of pAKT expression in human T47D cells at 10 to 1000 nM measured by western blot analysis; assay type: functional, cell-based; details: dose 10-1000 nM, DDE = dose-dependent effect
[7] = organism: Homo sapiens; assay: Selectivity ratio, ratio IC50 for inhibition of PI3Kalpha (unknown origin) to IC50 for inhibition of PI3Kdelta (unknown origin)
[8] = molecular target: T2, Histone deacetylase 8 (Homo sapiens, UniProt Q9BY41)
T2 sequence (Q9BY41 whole entry): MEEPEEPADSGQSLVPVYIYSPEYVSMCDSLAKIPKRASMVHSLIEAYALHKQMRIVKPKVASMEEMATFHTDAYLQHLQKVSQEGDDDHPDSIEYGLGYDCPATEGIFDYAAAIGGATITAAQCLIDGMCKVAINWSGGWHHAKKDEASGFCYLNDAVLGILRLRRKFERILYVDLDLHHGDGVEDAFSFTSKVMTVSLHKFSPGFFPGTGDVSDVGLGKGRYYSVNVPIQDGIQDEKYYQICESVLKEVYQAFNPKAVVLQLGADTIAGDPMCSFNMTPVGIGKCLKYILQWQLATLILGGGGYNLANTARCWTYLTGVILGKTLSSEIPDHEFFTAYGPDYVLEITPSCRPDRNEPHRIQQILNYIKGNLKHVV
Description: Inhibition of HDAC8 (unknown origin) measured by fluorescence based assay

[9] = Half life in male Sprague-Dawley rat at 2 mg/kg, iv measured upto 24 hrs by LC-MS/MS analysis; assay type: ADME, organism-based; details: in vivo
[10] = Apparent volume of distribution in male Sprague-Dawley rat at 2 mg/kg, iv measured upto 24 hrs by LC-MS/MS analysis; assay type: ADME, organism-based; details: in vivo, read-out: Vz
[11] = system: T47D; assay: Downregulation of pSTAT3 expression in IL-6-stimulated human T47D cells at 10 to 1000 nM measured by western blot analysis; assay type: functional, cell-based; details: dose 10-1000 nM, DDE = dose-dependent effect
[12] = molecular target: T3, Protein deacetylase HDAC6 (Homo sapiens, UniProt Q9UBN7)
T3 sequence (Q9UBN7 whole entry): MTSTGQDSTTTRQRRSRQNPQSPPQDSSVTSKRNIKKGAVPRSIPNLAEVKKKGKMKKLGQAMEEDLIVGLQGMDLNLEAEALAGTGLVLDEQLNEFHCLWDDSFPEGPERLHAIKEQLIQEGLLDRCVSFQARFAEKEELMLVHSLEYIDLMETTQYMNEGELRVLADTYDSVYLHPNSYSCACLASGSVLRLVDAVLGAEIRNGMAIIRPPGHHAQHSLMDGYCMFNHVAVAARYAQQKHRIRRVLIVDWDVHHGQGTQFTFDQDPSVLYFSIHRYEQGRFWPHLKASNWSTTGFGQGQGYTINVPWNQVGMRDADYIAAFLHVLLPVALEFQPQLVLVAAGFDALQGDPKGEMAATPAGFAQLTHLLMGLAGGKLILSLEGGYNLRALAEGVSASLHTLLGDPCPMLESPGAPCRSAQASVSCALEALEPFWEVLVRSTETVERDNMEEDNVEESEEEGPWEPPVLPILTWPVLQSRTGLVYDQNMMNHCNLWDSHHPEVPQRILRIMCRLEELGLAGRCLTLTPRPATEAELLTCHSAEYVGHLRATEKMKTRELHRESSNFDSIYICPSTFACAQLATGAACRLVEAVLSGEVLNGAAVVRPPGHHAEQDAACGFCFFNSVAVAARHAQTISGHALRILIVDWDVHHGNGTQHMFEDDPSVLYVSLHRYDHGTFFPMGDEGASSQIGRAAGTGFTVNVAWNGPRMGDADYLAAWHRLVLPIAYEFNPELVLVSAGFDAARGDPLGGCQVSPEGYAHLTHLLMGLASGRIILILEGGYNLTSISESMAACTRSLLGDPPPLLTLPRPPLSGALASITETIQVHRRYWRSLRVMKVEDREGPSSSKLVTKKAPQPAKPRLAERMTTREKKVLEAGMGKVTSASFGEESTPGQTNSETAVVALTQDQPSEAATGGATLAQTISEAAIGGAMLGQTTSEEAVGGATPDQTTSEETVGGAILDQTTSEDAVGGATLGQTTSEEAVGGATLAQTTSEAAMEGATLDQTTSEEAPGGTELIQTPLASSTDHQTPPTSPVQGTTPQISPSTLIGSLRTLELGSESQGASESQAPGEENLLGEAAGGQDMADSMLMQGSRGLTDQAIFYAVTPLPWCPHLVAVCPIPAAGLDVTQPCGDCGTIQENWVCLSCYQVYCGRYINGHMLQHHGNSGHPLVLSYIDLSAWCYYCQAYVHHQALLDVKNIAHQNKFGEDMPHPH
Description: Inhibition of HDAC6 (unknown origin) measured by fluorescence based assay

[13] = Clearance in male Sprague-Dawley rat at 2 mg/kg, iv measured upto 24 hrs by LC-MS/MS analysis; assay type: ADME, organism-based; details: in vivo
[14] = system: T47D; assay: Antiproliferative activity against human T47D cells incubated for 72 hrs by CCK-8 assay; assay type: functional, cell-based
[15] = system: T47D; assay: Downregulation of PD-L1 expression in human T47D cells at 10 to 1000 nM measured by western blot analysis; assay type: functional, cell-based; details: dose 10-1000 nM, DDE = dose-dependent effect
[16] = system: HCT-116; assay: Antiproliferative activity against human HCT-116 cells incubated for 72 hrs by CCK-8 assay; assay type: functional, cell-based; details: HCT-116, 72 h
[17] = system: SU-DHL-6; assay: Antiproliferative activity against human SU-DHL-6 cells incubated for 72 hrs by CCK-8 assay; assay type: functional, cell-based; details: SU-DHL-6, 72 h
[18] = system: KM12; assay: Antiproliferative activity against human KM12 cells incubated for 72 hrs by CCK-8 assay; assay type: functional, cell-based; details: KM12, 72 h
[19] = Cmax in male Sprague-Dawley rat at 2 mg/kg, iv measured upto 24 hrs by LC-MS/MS analysis; assay type: ADME, organism-based; design: time < 24 hrs, dose 2 mg/kg, route iv; details: in vivo

Chain of Phosphatidylinositol 4,5-bisphosphate 3-kinase catalytic subunit gamma isoform (P48736 whole entry, canonical isoform): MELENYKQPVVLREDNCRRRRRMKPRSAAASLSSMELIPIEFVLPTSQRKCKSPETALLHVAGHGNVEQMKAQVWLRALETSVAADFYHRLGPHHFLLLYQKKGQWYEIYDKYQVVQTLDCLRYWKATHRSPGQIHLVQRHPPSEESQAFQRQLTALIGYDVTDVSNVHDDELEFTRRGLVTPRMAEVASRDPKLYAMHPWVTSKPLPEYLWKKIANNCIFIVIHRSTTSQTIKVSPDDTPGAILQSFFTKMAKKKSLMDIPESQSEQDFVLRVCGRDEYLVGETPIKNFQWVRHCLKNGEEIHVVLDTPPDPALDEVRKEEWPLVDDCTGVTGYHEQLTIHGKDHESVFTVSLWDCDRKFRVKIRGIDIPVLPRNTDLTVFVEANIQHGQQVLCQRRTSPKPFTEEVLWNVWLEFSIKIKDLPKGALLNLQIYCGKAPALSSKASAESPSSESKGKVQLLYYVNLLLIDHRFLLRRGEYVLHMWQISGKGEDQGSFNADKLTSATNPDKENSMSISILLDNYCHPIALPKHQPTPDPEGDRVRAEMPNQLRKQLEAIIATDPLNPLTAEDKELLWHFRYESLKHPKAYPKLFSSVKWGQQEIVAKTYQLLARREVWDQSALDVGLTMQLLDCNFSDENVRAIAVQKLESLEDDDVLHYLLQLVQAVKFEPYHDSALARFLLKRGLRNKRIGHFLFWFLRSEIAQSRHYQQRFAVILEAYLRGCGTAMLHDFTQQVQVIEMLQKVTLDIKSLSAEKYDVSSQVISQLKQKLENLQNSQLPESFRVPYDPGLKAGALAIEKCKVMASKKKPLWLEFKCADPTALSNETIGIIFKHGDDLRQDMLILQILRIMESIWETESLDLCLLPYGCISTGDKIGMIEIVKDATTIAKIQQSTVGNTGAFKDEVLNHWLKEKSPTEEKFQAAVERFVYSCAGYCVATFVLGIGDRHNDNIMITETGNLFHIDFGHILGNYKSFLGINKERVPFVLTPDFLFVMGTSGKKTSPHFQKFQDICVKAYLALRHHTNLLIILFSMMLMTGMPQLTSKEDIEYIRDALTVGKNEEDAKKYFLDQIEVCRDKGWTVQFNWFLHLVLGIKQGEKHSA
Chain of Histone deacetylase 1 (Q13547 whole entry): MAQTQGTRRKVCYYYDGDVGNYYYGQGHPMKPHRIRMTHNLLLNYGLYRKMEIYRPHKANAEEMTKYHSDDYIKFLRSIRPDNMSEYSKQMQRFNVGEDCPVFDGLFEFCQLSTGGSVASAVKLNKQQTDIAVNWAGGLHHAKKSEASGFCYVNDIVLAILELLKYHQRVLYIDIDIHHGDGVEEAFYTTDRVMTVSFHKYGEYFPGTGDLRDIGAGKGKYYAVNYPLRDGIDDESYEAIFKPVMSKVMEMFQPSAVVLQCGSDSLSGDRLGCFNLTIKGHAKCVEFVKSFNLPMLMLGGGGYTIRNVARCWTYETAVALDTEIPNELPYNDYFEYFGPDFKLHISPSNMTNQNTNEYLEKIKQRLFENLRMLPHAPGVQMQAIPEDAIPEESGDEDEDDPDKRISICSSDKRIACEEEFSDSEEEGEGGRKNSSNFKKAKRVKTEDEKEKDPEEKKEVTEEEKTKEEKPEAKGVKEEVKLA
Chain of Phosphatidylinositol 4,5-bisphosphate 3-kinase catalytic subunit alpha isoform (P42336 whole entry, canonical isoform): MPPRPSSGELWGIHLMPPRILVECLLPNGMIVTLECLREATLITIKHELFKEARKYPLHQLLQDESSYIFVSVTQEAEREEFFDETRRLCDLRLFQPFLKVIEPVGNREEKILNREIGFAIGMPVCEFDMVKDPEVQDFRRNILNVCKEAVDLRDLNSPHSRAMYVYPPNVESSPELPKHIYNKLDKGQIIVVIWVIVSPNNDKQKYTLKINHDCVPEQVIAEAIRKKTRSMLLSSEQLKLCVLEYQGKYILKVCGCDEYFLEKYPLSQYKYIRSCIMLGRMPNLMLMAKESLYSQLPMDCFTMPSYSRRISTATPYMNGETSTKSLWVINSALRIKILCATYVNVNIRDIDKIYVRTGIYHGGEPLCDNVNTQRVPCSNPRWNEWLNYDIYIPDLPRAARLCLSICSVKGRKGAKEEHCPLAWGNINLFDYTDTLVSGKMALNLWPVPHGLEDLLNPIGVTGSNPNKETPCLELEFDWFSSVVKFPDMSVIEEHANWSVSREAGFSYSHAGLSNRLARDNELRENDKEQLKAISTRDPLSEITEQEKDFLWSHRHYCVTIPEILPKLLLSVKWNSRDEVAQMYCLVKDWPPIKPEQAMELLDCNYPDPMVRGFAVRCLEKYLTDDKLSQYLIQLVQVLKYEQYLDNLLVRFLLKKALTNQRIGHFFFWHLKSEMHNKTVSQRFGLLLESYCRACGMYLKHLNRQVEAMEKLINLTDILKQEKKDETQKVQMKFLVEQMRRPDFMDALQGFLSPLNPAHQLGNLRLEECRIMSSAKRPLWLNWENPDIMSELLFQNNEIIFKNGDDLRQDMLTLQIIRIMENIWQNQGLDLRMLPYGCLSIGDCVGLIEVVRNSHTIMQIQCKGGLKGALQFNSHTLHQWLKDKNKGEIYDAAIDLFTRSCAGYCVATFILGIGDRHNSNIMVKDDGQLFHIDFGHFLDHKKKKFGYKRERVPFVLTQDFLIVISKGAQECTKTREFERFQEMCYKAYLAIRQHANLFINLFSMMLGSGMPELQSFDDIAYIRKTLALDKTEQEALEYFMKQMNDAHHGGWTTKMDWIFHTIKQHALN

IC50 [1]: 1.55 µM
IC50 [2]: 0.169 µM
Ratio IC50 [3]: 13
IC50 [4]: 0.0305 µM
IC50 [5]: 0.23 µM
Ratio IC50 [7]: 73
IC50 [8]: > 5 µM
half-life [9]: 27.6 min
Vd [10]: 2.09 L/kg
IC50 [12]: 0.013 µM
clearance [13]: 53 mL/min/kg
IC50 [14]: 0.042 µM
IC50 [16]: 0.8 µM
IC50 [17]: 0.15 µM
Cmax [19]: 2120 ng/mL
Compound: N#Cc1c(N)nc(N)nc1N1CC2(CC2)C[C@H]1c1nc2cccc(Cl)c2c(=O)n1Cc1ccc(C(=O)NO)s1
Activity [6]: Dde
Activity [11]: Dde
Activity [15]: Dde
IC50 [18]: 1.19 µM
